# Experimental data: patent US10508120B2, “TYK2 inhibitors and uses thereof” (Nimbus Lakshmi, Inc., priority 2017, dated 2019)
# Legend:
# [1] = biological target: Tyk2 kinase domain (DH1) (Homo sapiens (Human), UniProt P29597); assay: Tyk2 Radioactive Kinase Assay; format: biochemical; details: 10 μM compound; 10 μM ATP; read-out: Tyk2 JH1% Inhibition @ 10 μM
# How it was run: (§1)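 Single-point screen: 10 μM test compound, radioactive kinase read-out, percent inhibition reported for each kinase domain.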
# [2] = biological target: JAK2 kinase domain (JH1) (Homo sapiens (Human), UniProt O60674); assay: JAK2 Radioactive Kinase Assay; format: biochemical; details: 10 μM compound; 10 μM ATP; read-out: JAK2 JH1% Inhibition @ 10 μM
# Sequence of JAK2 kinase domain (JH1) (O60674 849-1124): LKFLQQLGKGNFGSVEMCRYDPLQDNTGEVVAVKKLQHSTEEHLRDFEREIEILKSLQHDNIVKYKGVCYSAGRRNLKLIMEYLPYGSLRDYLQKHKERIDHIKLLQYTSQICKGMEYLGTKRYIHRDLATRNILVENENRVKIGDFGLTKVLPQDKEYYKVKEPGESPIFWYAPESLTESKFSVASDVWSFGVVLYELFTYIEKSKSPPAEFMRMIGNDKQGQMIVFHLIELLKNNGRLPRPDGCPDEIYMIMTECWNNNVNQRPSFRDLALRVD
# How it was run: as §1
# [3] = biological target: human TYK2 (JH2domain-pseudokinase) (Homo sapiens (Human), UniProt P29597); assay: TYK2 JH2 Domain Binding Assay (KINOMEscan)
# Sequence of human TYK2 (JH2domain-pseudokinase) (P29597 556-888): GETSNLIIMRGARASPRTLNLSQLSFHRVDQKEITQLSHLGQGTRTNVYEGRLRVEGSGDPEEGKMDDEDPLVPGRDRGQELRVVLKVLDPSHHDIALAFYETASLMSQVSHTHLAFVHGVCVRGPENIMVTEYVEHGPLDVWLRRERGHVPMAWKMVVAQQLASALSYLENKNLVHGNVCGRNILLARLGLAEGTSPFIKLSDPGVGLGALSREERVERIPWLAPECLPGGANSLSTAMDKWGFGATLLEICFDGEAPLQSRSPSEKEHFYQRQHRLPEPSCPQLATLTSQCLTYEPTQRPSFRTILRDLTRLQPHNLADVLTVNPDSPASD
# How it was run: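 Displacement of a DNA-tagged TYK2 JH2 fusion (human, aa G556–D888, HEK293 extract, <0.1 nM) from ligand-coated beads over 1 h at RT; binding buffer PBS/0.05% Tween 20/10 mM DTT/0.1% BSA.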
# Sequence of Tyk2 kinase domain (DH1) (P29597 897-1176): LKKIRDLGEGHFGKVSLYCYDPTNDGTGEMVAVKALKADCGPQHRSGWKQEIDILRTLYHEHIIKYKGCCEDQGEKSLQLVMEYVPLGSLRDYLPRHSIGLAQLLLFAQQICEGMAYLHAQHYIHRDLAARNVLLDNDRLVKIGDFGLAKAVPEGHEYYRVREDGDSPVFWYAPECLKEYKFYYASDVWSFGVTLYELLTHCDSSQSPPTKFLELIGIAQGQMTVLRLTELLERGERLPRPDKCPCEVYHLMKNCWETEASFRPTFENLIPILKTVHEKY
SMILES,inhibition at 10 µM [1],inhibition at 10 µM [2],Kd [3]
CNc1cc(Nc2cccn(-c3cccc(F)c3)c2=O)nc2c(C(=O)N[C@@H]3CC[C@@H]3O)cnn12 [I-1005],< 50%,< 50%,0.2 to 1 nM
CNc1cc(Nc2cc(Cl)cn(C3CCN(C)CC3)c2=O)nc2c(C(=O)N[C@@H]3CC[C@@H]3O)cnn12 [I-1007],< 50%,< 50%,0.2 to 1 nM
"CNc1cc(Nc2cccn(C3CCCN(CCC#N)C3)c2=O)nc2c(C(=O)NC3CC3)cnn12 (stereo not drawn) [I-1009, 5-((1-(1-(2-cyanoethyl)piperidin-3-yl)-2-oxo-1,2-dihydropyridin-3-yl)amino)-N-cyclopropyl-7-(methylamino)pyrazolo[1,5-a]pyrimidine-3-carboxamide]",< 50%,< 50%,0.2 to 1 nM
CNc1cc(Nc2cccn([C@H]3CCN(CCC#N)C3)c2=O)nc2c(C(=O)NC3CC3)cnn12 [I-1011],< 50%,< 50%,0.2 to 1 nM
CNc1cc(Nc2cccn([C@@H]3CCN(CCC#N)C3)c2=O)nc2c(C(=O)NC3CC3)cnn12 [I-1012],< 50%,< 50%,0.2 to 1 nM
"CNc1cc(Nc2cccnc2OC)nc2c(C(=O)N[C@H]3CC[C@@]3(C)O)cnn12 [I-1015, N-((1S,2R)-2-hydroxy-2-methylcyclobutyl)-5-((2-methoxypyridin-3-yl)amino)-7-(methylamino)pyrazolo[1,5-a]pyrimidine-3-carboxamide]",< 50%,< 50%,1 to 10 nM
"CNc1cc(Nc2cccnc2OC)nc2c(C(=O)N[C@@H]3CC[C@]3(C)O)cnn12 [I-1016, N-((1R,2S)-2-hydroxy-2-methylcyclobutyl)-5-((2-methoxypyridin-3-yl)amino)-7-(methylamino)pyrazolo[1,5-a]pyrimidine-3-carboxamide]",< 50%,< 50%,1 to 10 nM
CNc1cc(Nc2cccn(-c3cnco3)c2=O)nc2c(C(=O)N[C@@H]3CC[C@@H]3O)cnn12 [I-1018],< 50%,< 50%,1 to 10 nM
CNc1cc(Nc2cccn([C@H]3CC[C@@H]3OC)c2=O)nc2c(C(=O)NC3CC3)cnn12 [I-1019],< 50%,< 50%,0.2 to 1 nM
CNc1cc(Nc2cccn([C@@H]3CC[C@H]3OC)c2=O)nc2c(C(=O)NC3CC3)cnn12 [I-1020],< 50%,< 50%,0.2 to 1 nM
CNc1cc(Nc2cccn([C@@H]3CCC[C@@H](OC)C3)c2=O)nc2c(C(=O)NCC(C)(C)CO)cnn12 [I-1028],< 50%,< 50%,0.2 to 1 nM
CNc1cc(Nc2cccn(C3CCOCC3)c2=O)nc2c(C(=O)NC[C@@H](C)CO)cnn12 [I-1032],< 50%,< 50%,0.2 to 1 nM
CNc1cc(Nc2cccn(-c3ccccc3F)c2=O)nc2c(C(=O)N[C@@H]3CC[C@@H]3O)cnn12 [I-1036],< 50%,< 50%,0.2 to 1 nM
CNc1cc(Nc2cccn([C@@H]3CCCC[C@@H]3OC)c2=O)nc2c(C(=O)N[C@H]3CC[C@@H]3OC)cnn12 [I-1037],< 50%,< 50%,0.2 to 1 nM
CNc1cc(Nc2cccn([C@H]3CCCN(CCC#N)C3)c2=O)nc2c(C(=O)N[C@@H]3C[C@@H]3F)cnn12 [I-1040],< 50%,< 50%,0.2 to 1 nM
CNc1cc(Nc2cccn([C@@H]3CCCN(CCC#N)C3)c2=O)nc2c(C(=O)N[C@@H]3C[C@@H]3F)cnn12 [I-1041],< 50%,< 50%,0.2 to 1 nM
CNc1cc(Nc2cccn([C@@H]3CCC[C@@H](OC)C3)c2=O)nc2c(C(=O)N[C@@H]3C[C@@H]3F)cnn12 [I-1043],< 50%,< 50%,0.2 to 1 nM
CNc1cc(Nc2cccn([C@H]3CCCC[C@H]3OC)c2=O)nc2c(C(=O)NC3CC3)cnn12 [I-1044],< 50%,< 50%,0.2 to 1 nM
CNc1cc(Nc2cccn([C@H]3CCCC[C@H]3OC)c2=O)nc2c(C(=O)N[C@@H]3C[C@@H]3F)cnn12 [I-1045],< 50%,< 50%,0.2 to 1 nM
CNc1cc(Nc2cccn([C@H]3CCCC[C@H]3OC)c2=O)nc2c(C(=O)NCC3(CO)CC3)cnn12 [I-1047],< 50%,< 50%,0.2 to 1 nM
CNc1cc(Nc2cccn([C@@H]3CCC[C@H](OC)C3)c2=O)nc2c(C(=O)N[C@H]3CC[C@@H]3O)cnn12 [I-1055],< 50%,< 50%,0.2 to 1 nM
CNc1cc(Nc2cccn([C@H]3CCCC[C@H]3O)c2=O)nc2c(C(=O)N[C@H]3CC[C@@H]3OC)cnn12 [I-1058],< 50%,< 50%,0.2 to 1 nM
CNc1cc(-c2cn(C3CCOCC3)c3ncccc23)nc2c(C(=O)N[C@H]3CC[C@@H]3OC)cnn12 [I-1065],< 50%,< 50%,< 0.2 nM
CNc1cc(Nc2cc(Cl)cn(C3CCOCC3)c2=O)nc2c(C(=O)N[C@H]3CC[C@H]3O)cnn12 [I-1068],< 50%,< 50%,< 0.2 nM
CNc1cc(Nc2cc(Cl)cn(C3CCOCC3)c2=O)nc2c(C(=O)N[C@@H]3CC[C@@H]3O)cnn12 [I-1069],< 50%,< 50%,0.2 to 1 nM
CNc1cc(Nc2cccn(-c3ncc(C)s3)c2=O)nc2c(C(=O)N[C@H]3CC[C@@H]3O)cnn12 [I-1071],< 50%,< 50%,1 to 10 nM
CNc1cc(Nc2cccn(-c3ncc(C)s3)c2=O)nc2c(C(=O)N[C@H]3CC[C@H]3O)cnn12 [I-1072],< 50%,< 50%,< 0.2 nM
CNc1cc(Nc2cccn(-c3ccccc3F)c2=O)nc2c(C(=O)NC[C@@H](C)CO)cnn12 [I-1076],< 50%,< 50%,< 0.2 nM
CNc1cc(Nc2cccn(-c3ccccc3F)c2=O)nc2c(C(=O)NC[C@H](C)CO)cnn12 [I-1077],< 50%,< 50%,0.2 to 1 nM
CNc1cc(Nc2cccn(C(C)C)c2=O)nc2c(C(=O)N[C@H]3CCC[C@H](O)C3)cnn12 [I-1078],< 50%,< 50%,< 0.2 nM

# Now from value to compound:
inhibition at 10 µM [1],inhibition at 10 µM [2],Kd [3],SMILES
< 50%,< 50%,< 0.2 nM,CNc1cc(Nc2cc(Cl)cn(C3CCN(C)CC3)c2=O)nc2c(C(=O)N[C@H]3CC[C@H]3O)cnn12 [I-1006]
< 50%,50 to 70%,< 0.2 nM,"CNc1cc(Nc2cccnc2OC)nc2c(-c3cn(C(C)C)nn3)cnn12 [I-1008, 3-(1-isopropyl-1H-1,2,3-triazol-4-yl)-N5-(2-methoxypyridin-3-yl)-N7-methylpyrazolo[1,5-a]pyrimidine-5,7-diamine]"
< 50%,< 50%,< 0.2 nM,CNc1cc(Nc2cccn(-c3cccc(F)c3)c2=O)nc2c(C(=O)N[C@@H]3CC[C@H]3O)cnn12 [I-1023]
< 50%,< 50%,< 0.2 nM,CNc1cc(Nc2cccn(-c3cccc(F)c3)c2=O)nc2c(C(=O)N[C@H]3CC[C@@H]3O)cnn12 [I-1024]
< 50%,< 50%,< 0.2 nM,CNc1cc(Nc2cccn([C@@H]3CCC[C@@H](OC)C3)c2=O)nc2c(C(=O)NC3CC3)cnn12 [I-1026]
< 50%,< 50%,< 0.2 nM,CNc1cc(Nc2cccn([C@H]3CCC[C@H](O)C3)c2=O)nc2c(C(=O)N[C@@H]3C[C@@H]3F)cnn12 [I-1030]
< 50%,< 50%,< 0.2 nM,CNc1cc(Nc2cccn(C3CCOCC3)c2=O)nc2c(C(=O)NC[C@H](C)CO)cnn12 [I-1031]
< 50%,< 50%,< 0.2 nM,CNc1cc(Nc2cccn(-c3cccc(F)c3)c2=O)nc2c(C(=O)NC[C@@H](C)CO)cnn12 [I-1033]
< 50%,< 50%,< 0.2 nM,CNc1cc(Nc2cccn(-c3cccc(F)c3)c2=O)nc2c(C(=O)NC[C@H](C)CO)cnn12 [I-1034]
< 50%,< 50%,< 0.2 nM,CNc1cc(Nc2cccn(-c3ccccc3F)c2=O)nc2c(C(=O)N[C@@H]3CC[C@H]3O)cnn12 [I-1039]
< 50%,< 50%,< 0.2 nM,CNc1cc(Nc2cccn([C@H]3CCCC[C@H]3OC)c2=O)nc2c(C(=O)NCC(C)(C)CO)cnn12 [I-1046]
< 50%,< 50%,< 0.2 nM,CNc1cc(Nc2cccn([C@@H]3CCC[C@H](OC)C3)c2=O)nc2c(C(=O)N[C@@H]3CC[C@H]3O)cnn12 [I-1054]
< 50%,< 50%,< 0.2 nM,CNc1cc(Nc2cccn([C@H]3C[C@@H]3F)c2=O)nc2c(C(=O)NCC(C)(C)CO)cnn12 [I-1060]
< 50%,< 50%,< 0.2 nM,CNc1cc(Nc2cccn([C@@H]3CCC[C@@H](O)C3)c2=O)nc2c(C(=O)N[C@H]3CC[C@@H]3OC)cnn12 [I-1064]
